Assays:
[1] = tested on: RKO (RKOp27) human colon adenocarcinoma cells; test: Alamar Blue cell viability assay, anti-proliferative/cytotoxic activity on proliferating RKO subclones; format: cell-based; details: RKOp27, 72 h, RKO p27 uninduced (proliferating) cells, value = class bound given in Table A, read-out: −logIC50 RKO p27 uninduced (proliferating) (converted)
In short: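 RKOp27 subclones (5000 cells/well) were exposed 24 h after seeding to semi-log compound dilutions in DMEM with 10% FCS, in quadruplicate, for 72 h at 37 °C. Viability was read by Alamar Blue fluorescence (544/590 nm) relative to untreated cells (1% DMSO medium). IC50 came from concentration-effect curves and is reported as −log IC50 [mol/l].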

[2] = tested on: subclones of RKO colon adenocarcinoma cells (RKOp27 or RKOp21) arrested by Ponasterone A; test: Alamar Blue cell viability assay, cell cycle specific mode of action: cells arrested by ectopic p27Kip1 induced by Ponasterone A versus proliferating cells; format: cell-based; details: Homo sapiens, RKO p27 induced (arrested) cells, 10 μM Ponasterone A, 72 hours, value = class bound given in Table A, read-out: −logIC50 RKO p27 induced (arrested) (converted)
In short: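 RKOp27 or RKOp21 cells, 15000/well in DMEM/10% FCS, either arrested by p27Kip1 induced with 10 μM Ponasterone A or proliferating without inducer; compound added after 24 h, 72 h at 37° C. Alamar Blue fluorescence (544/590 nm), viability as % of untreated cells; −log IC50 reported.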

| Compound | IC50 [2] [µM] | IC50 [1] [nM] |
| --- | --- | --- |
| CN(C)C(=O)OCC1CCc2c(sc(NC(=O)/C=C/c3cccnc3)c2C#N)C1 (stereo not drawn) [Example 74, Dimethyl-carbamic acid 3-cyano-2-((E)-3-pyridin-3-yl-allanoylamino)-4,5,6,7-tetrahydro-benzo[b]thiophen-6-ylmethyl ester] | ≥ 100 | ≤ 501 |
| N#Cc1c(NC(=O)/C=C/c2cccnc2)sc2c1CCC(COC(=O)N1CCC(O)C1)C2 (stereo not drawn) [Example 75, 3-Hydroxy-pyrrolidine-1-carboxylic acid 3-cyano-2-((E)-3-pyridin-3-yl-allanoylamino)-4,5,6,7-tetrahydro-benzo[b]thiophen-6-ylmethyl ester] | ≥ 100 | ≤ 501 |
| N#Cc1c(NC(=O)/C=C/c2cccnc2)sc2c1CCC(OC(=O)N1CCC(O)C1)C2 (stereo not drawn) [Example 76, 3-Hydroxy-pyrrolidine-1-carboxylic acid 3-cyano-2-((E)-3-pyridin-3-yl-allanoylamino)-4,5,6,7-tetrahydro-benzo[b]thiophen-6-yl ester] | ≥ 100 | ≤ 501 |
| N#Cc1c(NC(=O)/C=C/c2cccnc2)sc2c1CCC(OC(=O)N1CC(O)C1)C2 (stereo not drawn) [Example 77, 3-Hydroxy-azetidine-1-carboxylic acid 3-cyano-2-((E)-3-pyridin-3-yl-allanoylamino)-4,5,6,7-tetrahydro-benzo[b]thiophen-6-yl ester] | ≥ 100 | ≤ 501 |
| CN(C)C(=O)OC1CCc2c(sc(NC(=O)/C=C/c3cccnc3)c2C#N)C1 (stereo not drawn) [Example 78, Dimethyl-carbamic acid 3-cyano-2-((E)-3-pyridin-3-yl-allanoylamino)-4,5,6,7-tetrahydro-benzo[b]thiophen-6-yl ester] | ≥ 100 | ≤ 501 |
| N#Cc1c(NC(=O)/C=C/c2cccnc2)sc2c1CCC(COC(=O)N1CCC1)C2 (stereo not drawn) [Example 79, Azetidine-1-carboxylic acid 3-cyano-2-((E)-3-pyridin-3-yl-allanoylamino)-4,5,6,7-tetrahydro-benzo[b]thiophen-6-ylmethyl ester] | ≥ 100 | 501 to 2000 |
| N#Cc1c(NC(=O)/C=C/c2cccnc2)sc2c1CCC(OC(=O)N1CCC1)C2 (stereo not drawn) [Example 80, Azetidine-1-carboxylic acid 3-cyano-2-((E)-3-pyridin-3-yl-allanoylamino)-4,5,6,7-tetrahydro-benzo[b]thiophen-6-yl ester] | ≥ 100 | ≤ 501 |
| COC(=O)[C@@H]1CCCN1C(=O)OC1CCc2c(sc(NC(=O)/C=C/c3cccnc3)c2C#N)C1 (stereo partly drawn) [Example 81, 2-(S)-Pyrrolidine-1,2-dicarboxylic acid 1-[3-cyano-2-((E)-3-pyridin-3-yl-allanoylamino)-4,5,6,7-tetrahydro-benzo[b]thiophen-6-yl] ester 2-methyl ester] | ≥ 100 | 501 to 2000 |
| CCN(CC)C(=O)OCC1CCc2c(sc(NC(=O)/C=C/c3cccnc3)c2C#N)C1 (stereo not drawn) [Example 82, Diethyl-carbamic acid 3-cyano-2-((E)-3-pyridin-3-yl-allanoylamino)-4,5,6,7-tetrahydro-benzo[b]thiophen-6-ylmethyl ester] | ≥ 100 | ≤ 501 |
| N#Cc1c(NC(=O)/C=C/c2cccnc2)sc2c1CCC(COC(=O)N1CCCCC1)C2 (stereo not drawn) [Example 83, Piperidine-1-carboxylic acid 3-cyano-2-((E)-3-pyridin-3-yl-allanoylamino)-4,5,6,7-tetrahydro-benzo[b]thiophen-6-ylmethyl ester] | ≥ 100 | ≤ 501 |
| N#Cc1c(NC(=O)/C=C/c2cccnc2)sc2c1CCC(COC(=O)N1CCOCC1)C2 (stereo not drawn) [Example 84, Morpholine-4-carboxylic acid-3-cyano-2-((E)-3-pyridin-3-yl-allanoylamino)-4,5,6,7-tetrahydro-benzo[b]thiophen-6-ylmethyl ester] | ≥ 100 | ≤ 501 |
| CCN(C)C(=O)OCC1CCc2c(sc(NC(=O)/C=C/c3cccnc3)c2C#N)C1 (stereo not drawn) [Example 85, Ethyl-methyl-carbamic acid 3-cyano-2-((E)-3-pyridin-3-yl-allanoylamino)-4,5,6,7-tetrahydro-benzo[b]thiophen-6-ylmethyl ester] | ≥ 100 | ≤ 501 |
| N#Cc1c(NC(=O)/C=C/c2cccnc2)sc2c1CCC(COC(=O)N1CC=CC1)C2 (stereo not drawn) [Example 86, 2,5-Dihydro-pyrrole-1-carboxylic acid 3-cyano-2-((E)-3-pyridin-3-yl-allanoylamino)-4,5,6,7-tetrahydro-benzo[b]thiophen-6-ylmethyl ester] | ≥ 100 | ≤ 501 |
| N#Cc1c(NC(=O)/C=C/c2cccnc2)sc2c1CCC(COC(=O)N1CCCC(O)C1)C2 (stereo not drawn) [Example 87, 3-Hydroxy-piperidine-1-carboxylic acid 3-cyano-2-((E)-3-pyridin-3-yl-allanoylamino)-4,5,6,7-tetrahydro-benzo[b]thiophen-6-ylmethyl ester] | ≥ 100 | ≤ 501 |
| CC1CCCN1C(=O)OCC1CCc2c(sc(NC(=O)/C=C/c3cccnc3)c2C#N)C1 (stereo not drawn) [Example 88, 2-Methylpyrrolidine-1-carboxylic acid 3-cyano-2-((E)-3-pyridin-3-yl-allanoylamino)-4,5,6,7-tetrahydro-benzo[b]thiophen-6-ylmethyl ester] | ≥ 100 | ≤ 501 |

Second part, led by results:

| IC50 [2] [µM] | Compound | IC50 [1] [nM] |
| --- | --- | --- |
| ≥ 100 | CN(C)C(=O)OC[C@H]1CCc2c(sc(NC(=O)/C=C/c3cccnc3)c2C#N)C1 [Example 74a, Dimethyl-carbamic acid (S)-3-cyano-2-((E)-3-pyridin-3-yl-allanoylamino)-4,5,6,7-tetrahydro-benzo[b]thiophen-6-ylmethyl ester] | ≤ 501 |
| ≥ 100 | CN(C)C(=O)OC[C@@H]1CCc2c(sc(NC(=O)/C=C/c3cccnc3)c2C#N)C1 [Example 74b, Dimethyl-carbamic acid (R)-3-cyano-2-((E)-3-pyridin-3-yl-allanoylamino)-4,5,6,7-tetrahydro-benzo[b]thiophen-6-ylmethyl ester] | ≤ 501 |
| ≥ 100 | N#Cc1c(NC(=O)/C=C/c2cccnc2)sc2c1CC[C@@H](COC(=O)N1CCC[C@@H](O)C1)C2 [Example 87a, (R)-3-Hydroxy-piperidine-1-carboxylic acid (R)-3-cyano-2-((E)-3-pyridin-3-yl-allanoylamino)-4,5,6,7-tetrahydro-benzo[b]thiophen-6-ylmethylester] | ≤ 501 |
| ≥ 100 | N#Cc1c(NC(=O)/C=C/c2cccnc2)sc2c1CC[C@H](COC(=O)N1CCC[C@@H](O)C1)C2 [Example 87b, (R)-3-Hydroxy-piperidine-1-carboxylic acid (S)-3-cyano-2-((E)-3-pyridin-3-yl-allanoylamino)-4,5,6,7-tetrahydro-benzo[b]thiophen-6-ylmethyl ester] | ≤ 501 |
| ≥ 100 | N#Cc1c(NC(=O)/C=C/c2cccnc2)sc2c1CC[C@H](COC(=O)N1CCC[C@H](O)C1)C2 [Example 87c, (S)-3-Hydroxy-piperidine-1-carboxylic acid (S)-3-cyano-2-((E)-3-pyridin-3-yl-allanoylamino)-4,5,6,7-tetrahydro-benzo[b]thiophen-6-ylmethyl ester] | ≤ 501 |
| ≥ 100 | N#Cc1c(NC(=O)/C=C/c2cccnc2)sc2c1CC[C@@H](COC(=O)N1CCC[C@H](O)C1)C2 [Example 87d, (S)-3-Hydroxy-piperidine-1-carboxylic acid (R)-3-cyano-2-((E)-3-pyridin-3-yl-allanoylamino)-4,5,6,7-tetrahydro-benzo[b]thiophen-6-ylmethyl ester] | ≤ 501 |

From patent US20110044938A1 (NYCOMED GMBH, priority 2006, published 2011)
